Key:
MDA-MB-231 = assay: Antiproliferative activity against human MDA-MB-231 cells incubated for 48 hrs by MTT assay; type: functional, cell-based; details: MDA-MB-231, 48 h
K562 = assay: Antiproliferative activity against human K562 cells incubated for 48 hrs by MTT assay; type: functional, cell-based; details: K562, 48 h
PC-3 = assay: Antiproliferative activity against human PC3 cells incubated for 48 hrs by MTT assay; type: functional, cell-based; details: PC-3, 48 h
[1] = target: Apoptosis regulator Bcl-2 (Homo sapiens, UniProt P10415); assay: Inhibition of 5-FAM-Bid-BH3 peptide binding to Bcl2 (unknown origin) pre-incubated for 30 mins followed by further incubation with 5-FAM-Bid-BH3 peptide for 20 mins by fluorescence polarization assay
[2] = target: Induced myeloid leukemia cell differentiation protein Mcl-1 (Homo sapiens, UniProt Q07820); assay: Inhibition of 5-FAM-Bid-BH3 peptide binding to Mcl1 (unknown origin) pre-incubated for 30 mins followed by further incubation with 5-FAM-Bid-BH3 peptide for 20 mins by fluorescence polarization assay
Bcl-2-like protein 1 = Bcl-2-like protein 1 (Homo sapiens, UniProt Q07817); assay: Inhibition of 5-FAM-Bid-BH3 peptide binding to Bcl-XL (unknown origin) pre-incubated for 30 mins followed by further incubation with 5-FAM-Bid-BH3 peptide for 20 mins by fluorescence polarization assay
Bcl-2-like protein 1, sequence (Q07817 whole entry): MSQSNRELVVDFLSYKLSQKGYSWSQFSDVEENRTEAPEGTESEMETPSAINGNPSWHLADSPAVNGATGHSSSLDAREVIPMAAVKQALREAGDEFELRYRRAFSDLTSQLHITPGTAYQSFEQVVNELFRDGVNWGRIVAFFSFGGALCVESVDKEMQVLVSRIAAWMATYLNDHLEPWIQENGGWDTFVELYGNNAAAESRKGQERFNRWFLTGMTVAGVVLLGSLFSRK

Apoptosis regulator Bcl-2, sequence (P10415 whole entry): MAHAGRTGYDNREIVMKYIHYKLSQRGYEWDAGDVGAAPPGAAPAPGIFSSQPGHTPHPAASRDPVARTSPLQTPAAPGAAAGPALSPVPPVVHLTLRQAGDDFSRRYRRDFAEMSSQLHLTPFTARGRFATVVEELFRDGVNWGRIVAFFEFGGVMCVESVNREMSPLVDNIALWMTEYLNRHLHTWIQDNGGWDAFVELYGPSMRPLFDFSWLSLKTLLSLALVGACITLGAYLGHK
Induced myeloid leukemia cell differentiation protein Mcl-1, sequence (Q07820 whole entry): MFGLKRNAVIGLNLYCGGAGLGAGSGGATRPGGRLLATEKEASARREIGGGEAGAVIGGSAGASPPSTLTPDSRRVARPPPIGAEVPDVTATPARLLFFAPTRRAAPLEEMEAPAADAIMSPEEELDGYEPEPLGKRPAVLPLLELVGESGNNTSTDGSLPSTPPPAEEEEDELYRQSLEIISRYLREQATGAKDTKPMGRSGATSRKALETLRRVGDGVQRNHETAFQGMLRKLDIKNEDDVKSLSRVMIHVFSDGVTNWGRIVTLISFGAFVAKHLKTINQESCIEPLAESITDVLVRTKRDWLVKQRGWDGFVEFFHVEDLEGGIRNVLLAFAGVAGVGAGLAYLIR

Row | Structure (SMILES) | Ki [1] [µM] | also measured
1 | Cc1ccc(S(=O)(=O)NC(=O)[C@H](Cc2ccccc2)N2C(=O)/C(=C/c3ccc(-c4ccccc4)cc3)SC2=S)cc1 | 0.94 | IC50 (MDA-MB-231): 45.9 µM; IC50 (K562): 44 µM; IC50 (PC-3): 30.1 µM; Ki [2]: 0.47 µM; Ki (Bcl-2-like protein 1; read-out: Ki): 1.2 µM
2 | COc1ccc2c(c1)c(CC(=O)N[C@@H](Cc1ccccc1)C(=O)NS(=O)(=O)c1ccc(Cl)c([N+](=O)[O-])c1)c(C)n2-c1ccc(-c2ccccc2)cc1 | 0.58 | IC50 (MDA-MB-231): 42.1 µM; IC50 (K562): 13 µM; IC50 (PC-3): 13.9 µM; Ki [2]: 0.48 µM; Ki (Bcl-2-like protein 1): Not Active
3 | COc1ccc2c(c1)c(CC(=O)N[C@@H](Cc1c[nH]c3ccccc13)C(=O)NS(=O)(=O)c1ccc(Cl)c([N+](=O)[O-])c1)c(C)n2-c1ccc(-c2ccccc2)cc1 | 0.83 | 
4 | COc1ccc2c(c1)c(CC(=O)NS(=O)(=O)c1ccc(NCc3ccccc3)c([N+](=O)[O-])c1)c(C)n2-c1ccc(C)cc1 | > 10 | 
5 | COc1ccc2c(c1)c(CC(=O)N[C@@H](Cc1ccccc1)C(=O)NS(=O)(=O)c1ccccc1)c(C)n2-c1ccc(C)cc1 | > 10 | 
6 | COc1ccc(S(=O)(=O)NC(=O)Cc2c(C)n(-c3ccc(-c4ccccc4)cc3)c3ccc(OC)cc23)cc1 | > 10 | 
7 | COc1ccc2c(c1)c(CC(=O)N[C@@H](Cc1c[nH]c3ccccc13)C(=O)NS(=O)(=O)c1ccccc1)c(C)n2-c1ccc(-c2ccccc2)cc1 | > 10 | 
8 | COc1ccc2c(c1)c(CC(=O)N[C@@H](Cc1ccc(OCc3ccc([N+](=O)[O-])cc3)cc1)C(=O)NS(=O)(=O)c1ccc(Cl)c([N+](=O)[O-])c1)c(C)n2-c1ccc(-c2ccccc2)cc1 | > 10 | 
9 | COc1ccc2c(c1)c(CC(=O)NS(=O)(=O)c1ccccc1)c(C)n2-c1ccc(-c2ccccc2)cc1 | > 10 | 
10 | COc1ccc(S(=O)(=O)NC(=O)[C@H](Cc2c[nH]c3ccccc23)NC(=O)Cc2c(C)n(-c3ccc(-c4ccccc4)cc3)c3ccc(OC)cc23)cc1 | > 10 | 
11 | COc1ccc2c(c1)c(CC(=O)NS(=O)(=O)c1ccc(NCc3ccccc3)c([N+](=O)[O-])c1)c(C)n2-c1ccc(-c2ccccc2)cc1 | > 10 | 

Further lines, with some results ahead:

Row | Ki [1] [µM] | Structure (SMILES) | also measured
12 | 0.91 | COc1ccc2c(c1)c(CC(=O)N[C@@H](Cc1ccccc1)C(=O)NS(=O)(=O)c1ccc([N+](=O)[O-])cc1)c(C)n2-c1ccc(-c2ccccc2)cc1 | 
13 | > 10 | COc1ccc2c(c1)c(CC(=O)NS(=O)(=O)c1ccc(NCCSc3ccccc3)c([N+](=O)[O-])c1)c(C)n2-c1ccc(-c2ccccc2)cc1 | 
14 | > 10 | COc1ccc2c(c1)c(CC(=O)NS(=O)(=O)c1ccc(N3CCN(C)CC3)c([N+](=O)[O-])c1)c(C)n2-c1ccc(C)cc1 | 
15 | > 10 | COc1ccc2c(c1)c(CC(=O)NS(=O)(=O)c1ccc(NC3CCCCC3)c([N+](=O)[O-])c1)c(C)n2-c1ccc(-c2ccccc2)cc1 | 
16 | > 10 | COc1ccc2c(c1)c(CC(=O)NS(=O)(=O)c1ccc(NCCCc3ccccc3)c([N+](=O)[O-])c1)c(C)n2-c1ccc(-c2ccccc2)cc1 | 
17 | > 10 | COc1ccc2c(c1)c(CC(=O)NS(=O)(=O)c1ccc(Cl)c([N+](=O)[O-])c1)c(C)n2-c1ccc(C)cc1 | 
18 | 0.35 | COc1ccc2c(c1)c(CC(=O)N[C@@H](Cc1ccccc1)C(=O)NS(=O)(=O)c1ccccc1)c(C)n2-c1ccc(-c2ccccc2)cc1 | IC50 (MDA-MB-231): 33.5 µM; IC50 (K562): 18.8 µM; IC50 (PC-3): 17.5 µM; Ki [2]: 0.96 µM; Ki (Bcl-2-like protein 1): Not Active
19 | > 10 | COc1ccc2c(c1)c(CC(=O)N[C@@H](Cc1ccccc1)C(=O)NS(=O)(=O)c1ccc(-c3ccccc3)cc1)c(C)n2-c1ccc(-c2ccccc2)cc1 | 
20 | > 10 | COc1ccc2c(c1)c(CC(=O)NS(=O)(=O)c1ccc(N3CCOCC3)c([N+](=O)[O-])c1)c(C)n2-c1ccc(-c2ccccc2)cc1 | 
21 | 0.72 | COc1ccc2c(c1)c(CC(=O)NS(=O)(=O)c1ccc(Cl)c([N+](=O)[O-])c1)c(C)n2-c1ccc(-c2ccccc2)cc1 | 
22 | 0.91 | COc1ccc2c(c1)c(CC(=O)N[C@@H](Cc1ccccc1)C(=O)NS(=O)(=O)c1ccc(Cl)cc1)c(C)n2-c1ccc(-c2ccccc2)cc1 | 
23 | > 10 | COc1ccc(S(=O)(=O)NC(=O)Cc2c(C)n(-c3ccc(C)cc3)c3ccc(OC)cc23)cc1 | 
24 | 0.72 | COc1ccc2c(c1)c(CC(=O)N[C@@H](Cc1ccc(OCc3ccc([N+](=O)[O-])cc3)cc1)C(=O)NS(=O)(=O)c1ccc(Cl)c([N+](=O)[O-])c1)c(C)n2-c1ccc(C)cc1 | 
25 | > 10 | COc1ccc2c(c1)c(CC(=O)NS(=O)(=O)c1ccc(N3CCOCC3)c([N+](=O)[O-])c1)c(C)n2-c1ccc(C)cc1 | 
26 | 0.47 | COc1ccc(S(=O)(=O)NC(=O)[C@H](Cc2ccccc2)NC(=O)Cc2c(C)n(-c3ccc(-c4ccccc4)cc3)c3ccc(OC)cc23)cc1 | IC50 (MDA-MB-231): 38.6 µM; IC50 (K562): 27.5 µM; IC50 (PC-3): 23.5 µM; Ki [2]: 0.88 µM; Ki (Bcl-2-like protein 1): Not Active
27 | > 10 | COc1ccc2c(c1)c(CC(=O)NS(=O)(=O)c1ccc([N+](=O)[O-])cc1)c(C)n2-c1ccc(C)cc1 | 
